Experimental data from paper PMC4852132 (Biochemistry, 2016).
Where two headings read alike, the source gives them in different places.

Assays:
E1p-ec [1] = target: T1, E1p-ec (Escherichia coli, UniProt P0AFG8); assay: CD titration of E1p-ec by acetylphosphinate; assay type: binding; settings: for Kd: read-out: Kd,AcPhi
E1p-h [2] = target: T2, E1p-h (Homo sapiens, UniProt P08559+P11177); assay: CD titration of E1p-h by acetylphosphinate; assay type: binding; settings: read-out: Kd,AcPhi
T2 sequence (P08559 30-390): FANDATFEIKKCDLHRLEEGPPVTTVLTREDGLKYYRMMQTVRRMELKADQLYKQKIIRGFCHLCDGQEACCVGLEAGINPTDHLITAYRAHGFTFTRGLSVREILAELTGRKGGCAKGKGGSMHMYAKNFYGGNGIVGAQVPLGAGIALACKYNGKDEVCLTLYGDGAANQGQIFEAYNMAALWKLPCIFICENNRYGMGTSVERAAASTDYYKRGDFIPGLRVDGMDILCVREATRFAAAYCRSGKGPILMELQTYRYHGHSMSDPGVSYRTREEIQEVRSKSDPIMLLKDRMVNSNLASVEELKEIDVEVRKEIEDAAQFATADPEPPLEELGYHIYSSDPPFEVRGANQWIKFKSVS
T2 sequence (P11177 31-359): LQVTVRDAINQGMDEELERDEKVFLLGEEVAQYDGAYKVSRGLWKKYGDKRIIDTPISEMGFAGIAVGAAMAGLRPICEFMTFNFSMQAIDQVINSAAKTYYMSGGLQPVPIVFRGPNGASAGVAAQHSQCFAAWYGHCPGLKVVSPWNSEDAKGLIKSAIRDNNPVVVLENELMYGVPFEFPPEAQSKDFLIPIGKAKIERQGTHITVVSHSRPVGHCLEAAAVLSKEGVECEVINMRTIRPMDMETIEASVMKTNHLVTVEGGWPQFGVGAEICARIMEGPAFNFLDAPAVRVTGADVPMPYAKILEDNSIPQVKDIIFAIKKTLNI

E1p-ec [3] = target: T1, E1p-ec; settings: read-out: Ki,AcPhi, reversible tight-binding inhibitor; cited from earlier work
E1p-h [4] = target: T2, E1p-h; settings: read-out: Ki,AcPhi; cited from earlier work
E1p-ec [5] = target: T1, E1p-ec; settings: read-out: Kd,AcPhi; E1p-ec with ThDP; cited from earlier work
DXPS = DXPS (Escherichia coli, UniProt P77488); assay: CD titration of apo-DXPS with ThTTDP; assay type: binding; settings: for Kd: read-out: Kd,ThTTDP, CD titration, CD331
Chain of DXPS (P77488 whole entry): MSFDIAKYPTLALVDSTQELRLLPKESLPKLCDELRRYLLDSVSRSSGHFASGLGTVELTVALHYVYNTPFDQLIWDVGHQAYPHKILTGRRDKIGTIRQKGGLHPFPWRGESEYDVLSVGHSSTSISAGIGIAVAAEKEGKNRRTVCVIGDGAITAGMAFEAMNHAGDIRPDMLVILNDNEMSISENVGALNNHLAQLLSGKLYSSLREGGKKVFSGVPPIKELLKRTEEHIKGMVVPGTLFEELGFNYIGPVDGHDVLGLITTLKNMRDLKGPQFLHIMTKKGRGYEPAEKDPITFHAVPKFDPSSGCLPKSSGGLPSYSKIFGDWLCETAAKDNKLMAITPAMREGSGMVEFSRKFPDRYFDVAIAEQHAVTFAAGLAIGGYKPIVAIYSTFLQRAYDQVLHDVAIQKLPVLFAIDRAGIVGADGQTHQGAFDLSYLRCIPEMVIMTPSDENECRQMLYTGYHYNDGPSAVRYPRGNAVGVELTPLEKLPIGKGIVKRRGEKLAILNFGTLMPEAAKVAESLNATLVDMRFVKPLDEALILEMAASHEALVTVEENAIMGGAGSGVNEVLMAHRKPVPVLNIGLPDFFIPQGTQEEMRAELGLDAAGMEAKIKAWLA

[6] = UV spectroscopic determination of the pKa for N1-protonated bacimethrin; assay type: physicochemical; settings: aqueous triple buffer
[7] = in the presence of 10 µM MeOThDP

T1 sequence (P0AFG8 2-887 limits assumed): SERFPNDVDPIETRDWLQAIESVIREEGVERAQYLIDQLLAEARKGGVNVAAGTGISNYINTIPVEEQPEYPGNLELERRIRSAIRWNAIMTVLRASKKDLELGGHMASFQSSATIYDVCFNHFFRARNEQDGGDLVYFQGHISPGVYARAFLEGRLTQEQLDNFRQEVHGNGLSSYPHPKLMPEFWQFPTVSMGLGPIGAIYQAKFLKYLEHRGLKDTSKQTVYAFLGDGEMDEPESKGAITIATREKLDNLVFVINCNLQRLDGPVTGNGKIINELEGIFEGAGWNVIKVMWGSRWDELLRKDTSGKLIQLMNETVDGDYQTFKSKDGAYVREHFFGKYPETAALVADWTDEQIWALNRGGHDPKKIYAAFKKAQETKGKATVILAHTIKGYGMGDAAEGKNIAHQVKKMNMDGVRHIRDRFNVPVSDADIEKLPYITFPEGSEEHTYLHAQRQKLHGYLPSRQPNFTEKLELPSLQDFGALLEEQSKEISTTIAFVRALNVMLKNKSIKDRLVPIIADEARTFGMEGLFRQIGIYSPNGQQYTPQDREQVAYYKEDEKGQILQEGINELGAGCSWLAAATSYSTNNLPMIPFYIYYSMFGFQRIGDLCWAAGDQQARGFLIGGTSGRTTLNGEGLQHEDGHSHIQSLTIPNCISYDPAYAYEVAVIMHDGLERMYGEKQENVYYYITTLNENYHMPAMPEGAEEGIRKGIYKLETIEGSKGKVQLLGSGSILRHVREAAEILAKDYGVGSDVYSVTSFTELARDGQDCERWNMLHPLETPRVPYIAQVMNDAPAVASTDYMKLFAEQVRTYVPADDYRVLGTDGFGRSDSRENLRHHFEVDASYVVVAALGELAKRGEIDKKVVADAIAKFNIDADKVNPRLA

In the case of `CC(=O)[PH](=O)[O-].[Na+]` [AcPhi, acetylphosphinic acid sodium salt], the “[AcPhi]/[E1p-ec] molar ratio at maximal CD intensity” value (E1p-ec [1]; E1p-ec complexed with ThDP) is reported as 1/1, the Kd (E1p-ec [1]; E1p-ec complexed with 0.20 mM MeOThDP, CD303) is reported as 1880 nM and the Kd (E1p-ec [1]; E1p-ec complexed with 0.20 mM ThDP, CD319) is reported as 36 nM. For the same molecule, the Kd (E1p-h [2]; E1p-h complexed with MeOThDP) was 1360 nM, the Kd (E1p-h [2]; E1p-h complexed with ThDP, unpublished data) was 43 nM and the Ki (E1p-ec [3]) was 760 nM. For the same molecule, the Ki (E1p-h [4]) was 14 nM and the Kd (E1p-ec [5]) was 62 nM.

For `Cc1ncc(Cn2c(C)c(CCOP(=O)(O)OP(=O)(O)O)sc2=S)c(N)n1` [ThTTDP, Thiamin 2-thiothiazolone diphosphate], the “[ThTTDP]/[DXPS active centers] molar ratio at saturation” value (DXPS; [7]) was 2.6, the “[ThTTDP]/[DXPS active centers] molar ratio at saturation” value (DXPS; no MeOThDP) was 1.26 and the Kd (DXPS; [7]) was 600 ± 140 nM. The Kd (DXPS; no MeOThDP) was 390 ± 100 nM.

With `COc1ncc(CO)c(N)n1` [bacimethrin, 4-amino-5-hydroxymethyl-2-methoxypyrimidine] the pKa [6] was 5.32 ± 0.03.
